Source: patent US8227407B2, “Macrocyclic inhibitors of hepatitis C virus” (Medivir AB, priority 2008, dated 2012)

Key:
[1] = test system: HCV replicons (Huh-7 luc/neo cells, NS3-NS5B regions of HCV type 1b); assay: HCV replicon assay (Huh-Luc cells, luciferase readout); format: cell-based; details: Hepatitis C virus, Huh-7, 72 h, three days incubation, luciferase activity
Description: The in vitro antiviral activity against HCV of the compounds of formula (I) was tested in a cellular HCV replicon system based on Lohmann et al. (1999) Science 285:110-113, with the further modifications described by Krieger et al. (2001) Journal of Virology 75: 4614-4624, which is further exemplified in the examples section. This model, while not a complete infection model for HCV, is widely accepted as the most robust and efficient model of autonomous HCV RNA replication currently available. […] It will be appreciated that it is important to distinguish between compounds that specifically interfere with HCV functions from those that exert cytotoxic or cytostatic effects in the HCV replicon model, and as a consequence cause a decrease in HCV RNA or linked reporter enzyme concentration. […]
The replicon cells were plated in 384 well plates in the presence of the test and control compounds which were added in various concentrations. Following an incubation of three days, HCV replication was measured by assaying luciferase activity (using standard luciferase assay substrates and reagents and a Perkin Elmer ViewLux™ ultraHTS microplate imager). […] The inhibitory activity of the compound on luciferase activity was monitored on the Huh-Luc cells, enabling a dose-response curve for each test compound. […]

[2] = target: T1, full-length hepatitis C NS3 protease enzyme with NS4A cofactor (HCV NS3/4A protease) (Hepatitis C virus genotype 1a, UniProt P27958); assay: HCV NS3/4A protease inhibition assay (enzymatic); format: biochemical; details: 1 nM enzyme, 25 μM NS4A cofactor, 0.5 μM depsipeptide substrate, 30° C., competitive inhibition model
T1 construct: full-length hepatitis C NS3 protease enzyme
T1 sequence (P27958 1027-1657): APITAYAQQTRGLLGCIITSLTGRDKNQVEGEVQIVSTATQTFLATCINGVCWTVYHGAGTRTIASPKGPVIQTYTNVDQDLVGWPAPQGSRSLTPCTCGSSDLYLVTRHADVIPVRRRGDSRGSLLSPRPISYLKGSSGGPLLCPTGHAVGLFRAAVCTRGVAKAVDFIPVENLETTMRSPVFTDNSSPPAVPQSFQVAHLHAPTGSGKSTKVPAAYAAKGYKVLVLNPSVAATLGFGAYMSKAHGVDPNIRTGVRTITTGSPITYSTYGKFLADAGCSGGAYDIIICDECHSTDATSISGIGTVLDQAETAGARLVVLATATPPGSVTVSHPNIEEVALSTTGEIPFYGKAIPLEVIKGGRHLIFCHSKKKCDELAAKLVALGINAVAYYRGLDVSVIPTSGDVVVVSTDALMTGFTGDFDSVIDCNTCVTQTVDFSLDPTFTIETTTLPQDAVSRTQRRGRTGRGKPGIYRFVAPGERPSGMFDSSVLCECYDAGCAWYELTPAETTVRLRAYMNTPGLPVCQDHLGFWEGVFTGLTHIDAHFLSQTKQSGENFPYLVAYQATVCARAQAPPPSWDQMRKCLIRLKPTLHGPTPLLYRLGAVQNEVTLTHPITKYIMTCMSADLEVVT
Description: The aim of this in vitro assay was to measure the inhibition of HCV NS3/4A protease complexes by the compounds of the present invention. This assay provides an indication of how effective compounds of the present invention would be in inhibiting HCV NS3/4A proteolytic activity.
The inhibition of full-length hepatitis C NS3 protease enzyme was measured essentially as described in Poliakov, 2002 Prot Expression & Purification 25 363 371. Briefly, the hydrolysis of a depsipeptide substrate, Ac-DED(Edans)EEAbuψ[COO]ASK(Dabcyl)-NH2 (AnaSpec, San José, USA), was measured spectrofluorometrically in the presence of a peptide cofactor, KKGSVVIVGRIVLSGK (Åke Engström, Department of Medical Biochemistry and Microbiology, Uppsala University, Sweden). [Landro, 1997 #Biochem 36 9340-9348]. The enzyme (1 nM) was incubated in 50 mM HEPES, pH 7.5, 10 mM DTT, 40% glycerol, 0.1% n-octyl-D-glucoside, with 25 μM NS4A cofactor and inhibitor at 30° C. for 10 min, whereupon the reaction was initiated by addition of 0.5 μM substrate. Inhibitors were dissolved in DMSO, sonicated for 30 sec. and vortexed. The solutions were stored at −20° C. between measurements.
The final concentration of DMSO in the assay sample was adjusted to 3.3%. The rate of hydrolysis was corrected for inner filter effects according to published procedures. [Liu, 1999 Analytical Biochemistry 267 331-335]. […]

Row | SMILES | EC50 [1] | Ki [2]
1 | COc1ccc2c(O[C@@H]3C[C@H]4C(=O)N[C@]5(C(=O)NS(=O)(=O)N(C)C)C[C@H]5/C=C\CCCCN(C)C(=O)[C@@H]4C3)cc(-c3nc(C(C)C)cs3)nc2c1 [Compound 37, N-[17-[2-(4-isopropylthiazol-2-yl)-7-methoxyquinolin-4-yloxy]-13-methyl-2,14-dioxo-3,13-diazatricyclo[13.3.0.0^4,6]octadec-7-ene-4-carbonyl](dimethylamino)sulfonamide] | 0.3 µM | 24 nM
2 | CCN(C)S(=O)(=O)NC(=O)[C@@]12C[C@H]1/C=C\CCCCN(C)C(=O)[C@@H]1C[C@H](Oc3cc(-c4nc(C(C)C)cs4)nc4cc(OC)ccc34)C[C@H]1C(=O)N2 [Compound 38, N-[17-[2-(4-isopropylthiazol-2-yl)-7-methoxyquinolin-4-yloxy]-13-methyl-2,14-dioxo-3,13-diazatricyclo[13.3.0.0^4,6]octadec-7-ene-4-carbonyl]-[(ethyl)(methyl)amino]sulfonamide] | 0.3 µM | 24 nM
